# According to the NIST ThermoML archive (doi:10.1016/j.fluid.2017.03.010):
# ± gives the expanded uncertainty stated by the source.
# Conditions: Liquid
Compound,Normal boiling temperature (othmer still),Normal boiling temperature (Othmer still)
CCO [ethanol],78.30 ± 1.6 °C,
O [water],,100.00 ± 1.6 °C
